The values below come from patent publication US12509434B2, “Optically resolved Trolox intermediate and method for producing same” (PTC THERAPEUTICS, INC., priority 2020, dated 2025).

A short description of series [1]: Solubility of the crystals in amide-based solvents NMP and DMA (reslurry, content of supernatant solution). It counts as physicochemical. To be noted: 20 °C. The method, then: Solubility of R-Trolox⋅R-PEA, S-Trolox⋅R-PEA, and S-Trolox to NMP and DMA
Each crystal was reslurried by adding an amide-based solvent (NMP, DMA). The solubility was calculated from analyzing the content of supernatant solution of each reaction solution at each temperature.

The nature of series [2]: Solubility of the crystals in ethyl acetate solvent (reslurry, content of supernatant solution). It counts as physicochemical. On the procedure: Solubility of RS-Trolox⋅R-PEA, R-Trolox⋅R-PEA, and S-Trolox⋅R-PEA to Ethyl Acetate Solvent
Each crystal was reslurried by adding ethyl acetate. The solubility was calculated from analyzing the content of supernatant solution of each reaction solution at each temperature.

Turning to `Cc1c(C)c2c(c(C)c1O)CC[C@](C)(C(=O)O)O2` [R-Trolox], the “Solubility [%] DMA” value in series [1] is on record as 0.4%. Besides, the “Solubility [%] NMP” value in series [1] came out at 0.5%. Besides, the “Solubility to ethyl acetate solvent” value in series [2] (0 °C) is reported as 0.07%; in series [2] (15 °C), 0.09%; in series [2] (30 °C), 0.10%; in series [2] (45 °C) it was 0.40%; in series [2] (60 °C), 0.78%; in series [2] (75 °C) it was 0.83%.

For `C[C@@H](N)c1ccccc1.Cc1c(C)c2c(c(C)c1O)CCC(C)(C(=O)O)O2` (racemic) [rac-Trolox], the “Solubility to ethyl acetate solvent” value in series [2] (0 °C) was 0.02%; in series [2] (15 °C), 0.02%; in series [2] (30 °C) it was 0.07%; in series [2] (45 °C) it was 0.38%; in series [2] (60 °C), 1.08%; in series [2] (75 °C) it was 2.82%.

`C[C@@H](N)c1ccccc1.Cc1c(C)c2c(c(C)c1O)CC[C@@](C)(C(=O)O)O2` [S-Trolox]: in series [1], the “Solubility [%] DMA” value is on record as at least 10%. Besides, the “Solubility [%] NMP” value in series [1] is listed as at least 10%. Moreover, the “Solubility to ethyl acetate solvent” value in series [2] (0 °C) amounted to 2.6%; in series [2] (15 °C) it was 9.9%; in series [2] (30 °C) it was 14.2%.

As to `Cc1c(C)c2c(c(C)c1O)CC[C@@](C)(C(=O)O)O2` [S-Trolox (Free), (S)-6-hydroxy-2,5,7,8-tetramethylchroman-2-carboxylic acid], in series [1], the “Solubility [%] DMA” value is at least 10% and the “Solubility [%] NMP” value was at least 10%.
